Data: patent US20130338115A1, “USE OF MITOCHONDRIALLY-ADDRESSED COMPOUNDS FOR PREVENTING AND TREATING CARDIOVASCULAR DISEASES” (Mitotech SA, priority 2007, published 2013)

What was measured:
Wistar male rats = assay: Regional myocardial ischemia and reperfusion in anesthetized rats; assay type: in vivo, rat
Method: To study a possibility of reduction of the irreversible damage of cardiomyocytes by SkQ1 in vivo a model of regional myocardial ischemia and reperfusion in anesthetized rats was used. Experiments were performed on Wistar male rats weighing 300-450 grams, fed a standard diet. In the control animals during three weeks received NaBr dissolved in 0.1 M phosphate buffer (pH 6.0), at a dose of 250 nmol/kg body weight/day. Animals of the experimental group during three weeks together with food received SkQ1 dissolved in 0.1 M phosphate buffer (pH 6.0), at a dose of 250 nmol/kg body weight/day.
In urethane-anesthetized animals ([…] body weight intraperitoneally administered), artificial ventilation of the lungs with room air with added oxygen at a rate of 60-80 beats per minute was carried out. Indicators of the acid-base balance of arterial blood (pH, pO2 and pCO2) during the entire experiment were controlled with the use of acid-base gas analyzer ABL-30 (Radiometer) and maintained at a physiological level.
Catheterization of the carotid artery was performed for recording arterial pressure (Mingograf 804, Siemens-Elema). The chest was opened by longitudinal dissection of the sternum and the heart was freed from the pericardium. To induce regional myocardial ischemia, the left ventricle was pierced with an atraumatic needle 5-0 under the left appendage in the direction perpendicular to long axis of the heart. Tightening the ligature at the anterior descending coronary artery (ADA) located deep in the pierced myocardium ceased blood supply to a portion of the myocardium, weakening of the ligature restored coronary flow.
The dissection is followed by a 30-min period of stabilization of hemodynamic parameters (the initial state). Then anterior descending coronary artery was occluded for 40 min followed by 60 min of reperfusion. At the end of the experiment, to identify the risk zone (RZ) and the intact zone, anterior descending coronary artery was occluded and a 2% Evans solution (2 ml) was injected as a bolus into the jugular vein. Then the heart was cut out and the left ventricle (LV) was separated and frozen at −20° C.
To measure infarct size, the method for histochemical localization of the risk zone (RZ) and myocardial infarction (MI) by tissue staining with 2,3,5-triphenyltetrazolium chloride (TFT) was used (Kitakaze M., Takashima S., Funaya H., Minamino T., Node K., Shinozaki Y., Mori H., Hori M., 1997. Temporary acidosis during reperfusion limits myocardial infarct size. Am. J. Physiol.; 272: H2071-H207). […] The obtained samples were scanned, MI and RZ sizes were determined by the method of computer-assisted planimetry using the Imagecal program. […]

[1] = system: isolated hearts of Wistar rats; assay: H2O2-induced development of arrhythmias in isolated rat hearts after 3 weeks oral SkQ1; assay type: in vivo; conditions: for normal rhythm maintained, % of the experiments: hydrogen peroxide 100 μm into coronary bed
Method: Wistar rats received preparation SkQ1 daily for 3 weeks at doses of 2.0, 0.2 and 0.02 nmol/kg body weight by its addition to the curd. In the control group of animals, the feed was supplemented with sodium bromate in a similar dose. Experiments on isolated hearts were performed 1-2 days after the end of administration of the preparations by a standard technique under conditions of retrograde perfusion of the heart with a controlled rate of perfusion and a measurement of spontaneous heart rate. The effect of SkQ1 on the incidence of arrhythmias induced by injection of hydrogen peroxide (100 μm) into the coronary bed of hearts was studied. This model reproduces some features of a situation of oxidative stress that develops during reperfusion of ischemic heart.

rat heart = conditions: pre-perfusion of rat heart; Kutala et al. 2006; cited from earlier work
[2] = SkQ1 250 nmol/kg body weight/day with food for three weeks, initial state

Compound | RZ/LV (risk zone/weight of the left ventricle), difference between the groups (Wistar male rats; 250 nmol/kg body weight/day, three weeks, 40 min occlusion, 60 min reperfusion) | MI/RZ ratio (myocardial infarction/risk zone), times less as compared to the control (Wistar male rats; 250 nmol/kg body weight/day, three weeks, 40 min occlusion, 60 min reperfusion, P<0.005) | effect on blood pressure (Wistar male rats; [2]) | effect on heart rate (Wistar male rats; [2]) | normal rhythm maintained, % of the experiments ([1]; SkQ1 0.02 nmol/kg daily for 3 weeks) | normal rhythm maintained, % of the experiments ([1]; SkQ1 0.2 nmol/kg daily for 3 weeks) | number of hearts with documented normal rhythm ([1]; SkQ1 0.2 nmol/kg, 23 experiments) | normal rhythm maintained, % of the experiments ([1]; SkQ1 2.0 nmol/kg daily for 3 weeks) | reduction of infarct size caused by subsequent ischemia/reperfusion (rat heart)
CC1=C(C)C(=O)C(CCCCCCCCCC[P+](c2ccccc2)(c2ccccc2)c2ccccc2)=CC1=O [SkQ1] | no differences | 1.7 times | No effect | No effect | 55% | 70% | 16 hearts | 58% | 
CC1(C)CC(O)CC(C)(C)N1[O] [Tempol] |  |  |  |  |  |  |  |  | 1.5 times
